Each compound was assayed against T1, human PAH with the R408W mutation (Homo sapiens, UniProt P00439, R408W) (assay: Cell Based Phenylalanine Flux Assay). Details: A375 cells expressing human R408W PAH; 24 hrs compound incubation; 13C-Tyrosine by LC-MS; average where tested multiple times; read-out: AC50.
T1 construct: expressed in transfected cells
T1 sequence (P00439 1-452 R408W): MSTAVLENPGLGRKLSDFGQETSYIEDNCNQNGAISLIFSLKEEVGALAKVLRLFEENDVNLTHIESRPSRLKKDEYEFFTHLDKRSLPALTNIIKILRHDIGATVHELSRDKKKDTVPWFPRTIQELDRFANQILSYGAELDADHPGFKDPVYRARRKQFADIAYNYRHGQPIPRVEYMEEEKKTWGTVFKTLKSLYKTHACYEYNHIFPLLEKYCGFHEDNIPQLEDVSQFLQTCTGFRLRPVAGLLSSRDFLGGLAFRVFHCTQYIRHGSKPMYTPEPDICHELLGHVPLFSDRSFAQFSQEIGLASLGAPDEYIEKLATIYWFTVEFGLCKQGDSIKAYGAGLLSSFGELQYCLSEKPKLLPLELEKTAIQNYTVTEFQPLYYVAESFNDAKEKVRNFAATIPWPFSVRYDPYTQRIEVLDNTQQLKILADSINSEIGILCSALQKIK
For `Cc1nc([C@H](C)O)oc1C(=O)N1CCc2[nH]cnc2C1c1ccc2ccccc2n1` (stereo in doubt) [Example 99, (2-((S)-1-hydroxyethyl)-4-methyloxazol-5-yl)((R)-4-(quinolin-2-yl)-6,7-dihydro-1H-imidazo[4,5-c]pyridin-5(4H)-yl)methanone], the AC50 was 1 to 5 µM.
For `Cc1nc(C2(O)CCC2)oc1C(=O)N1CCc2[nH]cnc2C1c1ccc2ccccc2n1` (stereo in doubt) [Example 101, (R)-(2-(1-hydroxycyclobutyl)-4-methyloxazol-5-yl)(4-(quinolin-2-yl)-6,7-dihydro-1H-imidazo[4,5-c]pyridin-5(4H)-yl)methanone], the AC50 was 0.5 to 1 µM.
Compound `Cc1nc(C2(O)CCC2)oc1C(=O)N1CCc2[nH]cnc2C1c1ccc2ccccc2n1` (stereo in doubt) [Example 102, (S)-(2-(1-hydroxycyclobutyl)-4-methyloxazol-5-yl)(4-(quinolin-2-yl)-6,7-dihydro-1H-imidazo[4,5-c]pyridin-5(4H)-yl)methanone] has an AC50 of over 5 µM.
With `Cc1ccc(-c2nnc(C(=O)N3CCc4[nH]cnc4C3c3ccc4ccccc4n3)o2)nc1` (stereo in doubt) [Example 103, (S)-(5-(5-methylpyridin-2-yl)-1,3,4-oxadiazol-2-yl)(4-(quinolin-2-yl)-6,7-dihydro-1H-imidazo[4,5-c]pyridin-5(4H)-yl)methanone] the AC50 was 1 to 5 µM.
In the case of `Cc1ccc(-c2nnc(C(=O)N3CCc4[nH]cnc4C3c3ccc4ccccc4n3)o2)nc1` (stereo in doubt) [Example 104, (R)-(5-(5-methylpyridin-2-yl)-1,3,4-oxadiazol-2-yl)(4-(quinolin-2-yl)-6,7-dihydro-1H-imidazo[4,5-c]pyridin-5(4H)-yl)methanone], the AC50 is reported as under 0.5 µM.
Compound `CC(C)(F)c1nnc(C(=O)N2CCc3[nH]cnc3C2c2ccc3ccccc3n2)o1` (stereo in doubt) [Example 105, (R)-(5-(2-fluoropropan-2-yl)-1,3,4-oxadiazol-2-yl)(4-(quinolin-2-yl)-6,7-dihydro-1H-imidazo[4,5-c]pyridin-5(4H)-yl)methanone] has an AC50 of 0.5 to 1 µM.
With `CC(C)(F)c1nnc(C(=O)N2CCc3[nH]cnc3C2c2ccc3ccccc3n2)o1` (stereo in doubt) [Example 106, (S)-(5-(2-fluoropropan-2-yl)-1,3,4-oxadiazol-2-yl)(4-(quinolin-2-yl)-6,7-dihydro-1H-imidazo[4,5-c]pyridin-5(4H)-yl)methanone] the AC50 was 1 to 5 µM.
Work on `O=C(c1nnc(-c2cc(C(F)(F)F)ccn2)o1)N1CCc2[nH]cnc2C1c1ccc2ccccc2n1` (stereo in doubt) [Example 107, (R)-(4-(quinolin-2-yl)-6,7-dihydro-1H-imidazo[4,5-c]pyridin-5(4H)-yl)(5-(4-(trifluoromethyl)pyridin-2-yl)-1,3,4-oxadiazol-2-yl)methanone] yielded an AC50 of 0.5 to 1 µM.
`O=C(c1nnc(-c2cc(C(F)(F)F)ccn2)o1)N1CCc2[nH]cnc2C1c1ccc2ccccc2n1` (stereo in doubt) [Example 108, (S)-(4-(quinolin-2-yl)-6,7-dihydro-1H-imidazo[4,5-c]pyridin-5(4H)-yl)(5-(4-(trifluoromethyl)pyridin-2-yl)-1,3,4-oxadiazol-2-yl)methanone] gave an AC50 of 1 to 5 µM.
With `O=C(c1cn(-c2ccccn2)nc1Cl)N1CCc2[nH]cnc2C1c1ccc2ccccc2n1` (stereo in doubt) [Example 109, (R)-(3-chloro-1-(pyridin-2-yl)-1H-pyrazol-4-yl)(4-(quinolin-2-yl)-6,7-dihydro-1H-imidazo[4,5-c]pyridin-5(4H)-yl)methanone] the AC50 was 1 to 5 µM.
For `O=C(c1cn(-c2ccccn2)nc1Cl)N1CCc2[nH]cnc2C1c1ccc2ccccc2n1` (stereo in doubt) [Example 110, (S)-(3-chloro-1-(pyridin-2-yl)-1H-pyrazol-4-yl)(4-(quinolin-2-yl)-6,7-dihydro-1H-imidazo[4,5-c]pyridin-5(4H)-yl)methanone], the AC50 was 1 to 5 µM.
Compound `Cc1nc([C@@H](C)O)oc1C(=O)N1CCc2[nH]cnc2C1c1ccc2ccccc2n1` (stereo in doubt) [Example 111, (2-((R)-1-hydroxyethyl)-4-methyloxazol-5-yl)((R)-4-(quinolin-2-yl)-6,7-dihydro-1H-imidazo[4,5-c]pyridin-5(4H)-yl)methanone] has an AC50 of 0.5 to 1 µM.
For `CC(C)(O)c1nc(Cl)c(C(=O)N2CCc3[nH]cnc3C2c2ccc3ccccc3n2)o1` (stereo in doubt) [Example 113, (R)-(4-chloro-2-(2-hydroxypropan-2-yl)oxazol-5-yl)(4-(quinolin-2-yl)-6,7-dihydro-1H-imidazo[4,5-c]pyridin-5(4H)-yl)methanone], the AC50 was under 0.5 µM.
`CC(C)(O)c1nc(Cl)c(C(=O)N2CCc3[nH]cnc3C2c2ccc3ccccc3n2)o1` (stereo in doubt) [Example 114, (S)-(4-chloro-2-(2-hydroxypropan-2-yl)oxazol-5-yl)(4-(quinolin-2-yl)-6,7-dihydro-1H-imidazo[4,5-c]pyridin-5(4H)-yl)methanone] was tested, and the AC50 was over 5 µM.
`O=C(c1nnc(-c2cc[nH]n2)o1)N1CCc2[nH]cnc2C1c1ccc2ccccc2n1` (stereo in doubt) [Example 115, (R)-(5-(1H-pyrazol-3-yl)-1,3,4-oxadiazol-2-yl)(4-(quinolin-2-yl)-6,7-dihydro-1H-imidazo[4,5-c]pyridin-5(4H)-yl)methanone] showed an AC50 of under 0.5 µM.
With `O=C(c1nnc(-c2cc[nH]n2)o1)N1CCc2[nH]cnc2C1c1ccc2ccccc2n1` (stereo in doubt) [Example 116, (S)-(5-(1H-pyrazol-3-yl)-1,3,4-oxadiazol-2-yl)(4-(quinolin-2-yl)-6,7-dihydro-1H-imidazo[4,5-c]pyridin-5(4H)-yl)methanone] the AC50 was 1 to 5 µM.
For `Cc1nc(C(C)(C)C#N)oc1C(=O)N1CCc2[nH]cnc2C1c1ccc2ccccc2n1` (stereo in doubt) [Example 117, (S)-2-methyl-2-(4-methyl-5-(4-(quinolin-2-yl)-4,5,6,7-tetrahydro-1H-imidazo[4,5-c]pyridine-5-carbonyl)oxazol-2-yl)propanenitrile], the AC50 was 1 to 5 µM.
Compound `Cc1nc(C(C)(C)C#N)oc1C(=O)N1CCc2[nH]cnc2C1c1ccc2ccccc2n1` (stereo in doubt) [Example 118, (R)-2-methyl-2-(4-methyl-5-(4-(quinolin-2-yl)-4,5,6,7-tetrahydro-1H-imidazo[4,5-c]pyridine-5-carbonyl)oxazol-2-yl)propanenitrile] has an AC50 of under 0.5 µM.
`C[C@@H](O)c1nc(C(F)F)c(C(=O)N2CCc3[nH]cnc3C2c2ccc3ccccc3n2)o1` (stereo in doubt) [Example 119, (4-(difluoromethyl)-2-((R)-1-hydroxyethyl)oxazol-5-yl)((S)-4-(quinolin-2-yl)-6,7-dihydro-1H-imidazo[4,5-c]pyridin-5(4H)-yl)methanone] showed an AC50 of 1 to 5 µM.
`C[C@@H](O)c1nc(C(F)F)c(C(=O)N2CCc3[nH]cnc3C2c2ccc3ccccc3n2)o1` (stereo in doubt) [Example 120, (4-(difluoromethyl)-2-((R)-1-hydroxyethyl)oxazol-5-yl)((R)-4-(quinolin-2-yl)-6,7-dihydro-1H-imidazo[4,5-c]pyridin-5(4H)-yl)methanone] was tested, and the AC50 was under 0.5 µM.
Work on `C[C@H](O)c1nc(C(F)F)c(C(=O)N2CCc3[nH]cnc3C2c2ccc3ccccc3n2)o1` (stereo in doubt) [Example 121, (4-(difluoromethyl)-2-((S)-1-hydroxyethyl)oxazol-5-yl)((S)-4-(quinolin-2-yl)-6,7-dihydro-1H-imidazo[4,5-c]pyridin-5(4H)-yl)methanone] yielded an AC50 of 1 to 5 µM.
